“Also recorded” adds a separate entry of the source. Where a SMILES comes first, the peptide text is derived from it. Bridges are numbered along the chain shown (N, C = ends).

A short description of data set [1]: AFM of peptide alone (self-aggregation / fibril formation). To be noted: for aggregation propensity relative to comparator: comparison of pramlintide with the IAPP peptides; for aggregation / fibril formation of peptide alone, AFM: incubated 40 minutes at 37° C. with shaking. Format: physicochemical. Here is the method:
Samples labeled with hIAPP contained 40 μM hIAPP. The sample with pramlintide and hIAPP contained a 2:1 molar mixture (80 μM Pramlintide mixed with 40 μM hIAPP). The samples with raccoon IAPP and Pramlintide alone contained 40 μM of the indicated peptides. Each sample was incubated for 40 minutes at 37° C. with shaking; conditions known to promote hIAPP amyloid formation. All scans show raw data with no flattening and are […].
Samples of hIAPP with or without animal IAPP were prepared as described in Example 1 and were then incubated with shaking at 37° C. for 40 minutes. After this incubation, 17 μL of each sample was deposited onto freshly cleaved mica. Samples were incubated for 5 minutes at room temperature before washing with 200 μL sterile water. After drying, the samples were scanned using an MFP-3D atomic force microscope (Asylum Research) set on A/C mode and a 240 m silicon cantilever (Olympus).
Many of the animal IAPP variants are known to likewise form fibrils and yield amyloid-plaques when scanned via AFM. […] This is in spite of the fact that all of these IAPP peptides (except polar bear IAPP) are known to aggregate and form fibrils themselves under these or similar conditions

Data set [2] deals with T1, human IAPP (hIAPP) (Homo sapiens, UniProt P10997).
T1 construct: This 37 amino acid polypeptide is co-secreted from pancreatic β-islet cells with insulin
T1 sequence (P10997 34-70 limits assumed): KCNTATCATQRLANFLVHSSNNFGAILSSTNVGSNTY
In words: Thioflavin T binding assay of hIAPP aggregation when mixed with IAPP peptides. Format: biochemical. Conditions: peptide mixed with hIAPP; no single assay (thioflavin T and AFM). The essentials: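 37 μM hIAPP plus 75 μM animal IAPP (2:1) in 20 mM Tris pH 7.4, shaken 200 rpm at 37 °C for 40 min. Aliquots were mixed into 50.0 μM thioflavin T and emission read at 488 nm, with fibrils checked by AFM. Significance vs hIAPP alone was determined by t-test.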

For data set [3], the target named is T1, human IAPP (hIAPP). In words: Atomic force microscopy (AFM) of hIAPP fibril formation when mixed with IAPP peptides. It counts as biochemical. To be noted: 37 μM hIAPP and 75 μM peptide, 37° C. with shaking for 40 minutes. The essentials: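 hIAPP (37–40 μM) alone or mixed with other IAPP peptides (equimolar or about 2:1 peptide:hIAPP) was shaken at 37° C for 30–40 minutes. Samples deposited on mica, washed with water, dried and imaged by AFM in A/C mode; scans […], raw unflattened data.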

Another data set relates to RIN-m cells. In words: MTT viability assay, peptide alone or mixed with hIAPP. To be noted: for rescue / protection of cells from hIAPP toxicity (words): hIAPP mixed with peptide 1:1, MTT assay; for toxicity of peptide to cells: peptide alone, MTT assay, pancreatic (RIN-m) cells. Format: cell-based. The source says:
Cytoprotection can likewise be measured by a number of assays known to the art. One such assay is the MTT assay, which is a colorimetric assay for assessing cell metabolic activity. NAD(P)H-dependent cellular oxidoreductase enzymes in the cytosolic compartment of a cell reduces the tetrazolium dye MTT 3-(4,5-dimethylthiazol-2-yl)-2,5-diphenyltetrazolium bromide to an insoluble form, formazan, which has a purple color. The reduction of MTT (and other tetrazolium dyes) depends on the cellular metabolic activity, so a loss of color in the course of performing an MTT assay indicates low metabolic activity, and is thus an indicator of cell damage and death.
To test cell viability, a MTT colorimetric assay measuring the conversion of yellow tetrazolium salt into purple formazan crystal catalyzed by a mitochondrial reductase was used. Cell viability studies were performed using RIN-m cells (ATCC, CRL-2057). An equal number of RIN-m cells were plated in triplicate and incubated overnight in 96-well plates. The next day, fresh RPMI-1640 with phenol red supplemented with 10% FBS was added to cells. Hexafluoroisopropanol (HFIP) was removed from each individual human and animal IAPP using a centrivap concentrator (LabOnco). All IAPP peptide samples were re-suspended in RPMI-1640 with 10% FBS. To ensure even re-suspension, each resulting IAPP-containing vial was scraped with a pipette tip six times and vortexed (Vortex Genie Mixer) for 15 seconds. The whole process, from drying each IAPP peptide to adding each IAPP peptide to the cells was uniform to ensure that each sample was incubated for an equal amount of time with each IAPP peptide. IAPP peptides were added to cells and incubated for 46 hours at 37° C. Post-incubation, the media in each well was replaced by fresh DMEM/F-12 without phenol red. MTT (3-(4,5-dimethyl-2-thiazolyl)-2,5-diphenyl-tetrazolium bromide) was added into each well and incubated at 37° C. for 2 hours. Formazan crystals, formed on the bottom of the wells, were re-suspended in solubilization buffer (20% SDS and 50% dimethylformamide). The absorbance in each well was taken at 570 nm using a Multiskan FC Microplate Photometer (Thermos Fisher Scientific). Media were obtained from ATCC. All incubations took place in a water jacketed incubator in 5% carbon dioxide at 37° C. (Shell Lab).
The MTT viability assay was used to measure cell viability of RIN-m cells upon addition of hIAPP alone, the addition of each animal IAPP peptide alone, and hIAPP mixed with each animal IAPP peptide (results shown in FIG. 5). RIN-m cells alone were used as a control and set to 100% cell viability. […] Addition of raccoon IAPP to hIAPP increased the cell viability from 55% to an average of 72% (p=0.005705). Addition of chicken IAPP variant to hIAPP increased cell viability to an average of 76% (p=0.013556).
A general note: Formazan colour is commonly taken as a measure of viable cells.

For data set [4], the target named is T1, human IAPP (hIAPP). In words: hIAPP aggregation in the presence of human insulin. Format: biochemical.

As to `CC[C@H](C)[C@H](NC(=O)[C@H](C)NC(=O)CNC(=O)[C@@H](NC(=O)[C@H](CC(N)=O)NC(=O)[C@H](CO)NC(=O)[C@H](CO)NC(=O)[C@H](CO)NC(=O)[C@H](CCCNC(=N)N)NC(=O)[C@@H](NC(=O)[C@H](CC(C)C)NC(=O)[C@H](Cc1ccccc1)NC(=O)[C@H](CC(=O)O)NC(=O)[C@H](C)NC(=O)[C@H](CC(C)C)NC(=O)[C@H](CCCNC(=N)N)NC(=O)[C@H](CCC(N)=O)NC(=O)[C@@H](NC(=O)[C@@H](NC(=O)[C@@H]1CSSC[C@H](NC(=O)[C@@H](N)CCCCN)C(=O)N[C@@H](CC(N)=O)C(=O)N[C@@H]([C@@H](C)O)C(=O)N[C@@H](C)C(=O)N[C@@H]([C@@H](C)O)C(=O)N1)C(C)C)[C@@H](C)O)C(C)C)[C@@H](C)CC)C(=O)N[C@@H](Cc1ccc(O)cc1)C(=O)N[C@@H](CO)C(=O)N1CCC[C@H]1C(=O)N[C@H](C(=O)N[C@@H](CC(N)=O)C(=O)N[C@H](C(=O)NCC(=O)N[C@@H](CO)C(=O)N[C@@H](CC(N)=O)C(=O)N[C@H](C(=O)N[C@@H](Cc1ccc(O)cc1)C(N)=O)[C@@H](C)O)C(C)C)[C@@H](C)O` [chicken IAPP] (H-KCNTATCVTQRLADFLVRSSSNIGAIYSPTNVGSNTY-NH2; disulfide 2-7 (inferred); N-terminus and C-terminus assumed), in data set [1], the “aggregation propensity relative to comparator” value was “less aggregation-prone than Pramlintide”. Also, at human IAPP (hIAPP) [2], the “inhibition of hIAPP aggregation (summary statement)” value is on record as “able to inhibit such aggregation; also recorded: inhibit aggregate formation by hIAPP”. Further, the “inhibition of hIAPP fibril formation, AFM” value at human IAPP (hIAPP) [3] is given as “significant ability to prevent fiber formation”. Besides, the “rescue / protection of cells from hIAPP toxicity (words)” value (from here on “rescue / protection of cells”) in the data set with RIN-m cells is given as “significant increase in cell viability; also recorded: rescue living cells from the toxic effects of hIAPP”. At human IAPP (hIAPP) [4], the “prevention of hIAPP aggregation in the presence of human insulin” value is listed as “prevent hIAPP aggregation in the presence of human insulin”.
Turning to `CC[C@H](C)[C@H](NC(=O)[C@H](C)NC(=O)CNC(=O)[C@H](Cc1ccccc1)NC(=O)[C@H](CC(N)=O)NC(=O)[C@H](CC(N)=O)NC(=O)[C@H](CO)NC(=O)[C@H](CO)NC(=O)[C@H](Cc1c[nH]cn1)NC(=O)[C@@H](NC(=O)[C@H](CC(C)C)NC(=O)[C@H](Cc1ccccc1)NC(=O)[C@H](CC(N)=O)NC(=O)[C@H](C)NC(=O)[C@H](CC(C)C)NC(=O)[C@H](CCCNC(=N)N)NC(=O)[C@H](CCC(N)=O)NC(=O)[C@@H](NC(=O)[C@H](C)NC(=O)[C@@H]1CSSC[C@H](NC(=O)[C@@H](N)CCCCN)C(=O)N[C@@H](CC(N)=O)C(=O)N[C@@H]([C@@H](C)O)C(=O)N[C@@H](C)C(=O)N[C@@H]([C@@H](C)O)C(=O)N1)[C@@H](C)O)C(C)C)C(=O)N[C@@H](CC(C)C)C(=O)N[C@@H](CO)C(=O)N[C@@H](CO)C(=O)N[C@H](C(=O)N[C@@H](CC(N)=O)C(=O)N[C@H](C(=O)NCC(=O)N[C@@H](CO)C(=O)N[C@@H](CC(N)=O)C(=O)N[C@H](C(=O)N[C@@H](Cc1ccc(O)cc1)C(N)=O)[C@@H](C)O)C(C)C)[C@@H](C)O` [hIAPP, reference compound], the “aggregation / fibril formation of peptide alone, AFM” value in data set [1] was “forms high-density fibrils”. Besides, the “cell viability, peptide alone” value in the data set on RIN-m cells (12.8 μM, RIN-m cells, 46 hours, cells alone set to 100%) is recorded as 55+/−5%.
`CC[C@H](C)[C@H](NC(=O)[C@@H]1CCCN1C(=O)CNC(=O)[C@H](Cc1ccccc1)NC(=O)[C@H](CC(N)=O)NC(=O)[C@H](CC(N)=O)NC(=O)[C@H](CO)NC(=O)[C@H](CO)NC(=O)[C@H](Cc1c[nH]cn1)NC(=O)[C@@H](NC(=O)[C@H](CC(C)C)NC(=O)[C@H](Cc1ccccc1)NC(=O)[C@H](CC(N)=O)NC(=O)[C@H](C)NC(=O)[C@H](CC(C)C)NC(=O)[C@H](CCCNC(=N)N)NC(=O)[C@H](CCC(N)=O)NC(=O)[C@@H](NC(=O)[C@H](C)NC(=O)[C@@H]1CSSC[C@H](NC(=O)[C@@H](N)CCCCN)C(=O)N[C@@H](CC(N)=O)C(=O)N[C@@H]([C@@H](C)O)C(=O)N[C@@H](C)C(=O)N[C@@H]([C@@H](C)O)C(=O)N1)[C@@H](C)O)C(C)C)C(=O)N[C@@H](CC(C)C)C(=O)N1CCC[C@H]1C(=O)N1CCC[C@H]1C(=O)N[C@H](C(=O)N[C@@H](CC(N)=O)C(=O)N[C@H](C(=O)NCC(=O)N[C@@H](CO)C(=O)N[C@@H](CC(N)=O)C(=O)N[C@H](C(=O)N[C@@H](Cc1ccc(O)cc1)C(N)=O)[C@@H](C)O)C(C)C)[C@@H](C)O` [pramlintide, reference compound]: in data set [1], the “aggregation propensity relative to comparator” value was “more amyloidogenic than the present IAPP peptides” and the “aggregation / fibril formation of peptide alone, AFM” value is reported as “formed amyloid fibers”. Further, in the data set on RIN-m cells, the “rescue / protection of cells” value is “no ability to protect cells from the toxic effects of hIAPP” and the “toxicity of peptide to cells” value is given as “toxic to the cells”.
With “rat IAPP: naturally occurring IAPP peptide of rat origin (FIG. 1)”, the “inhibition of hIAPP aggregation (summary statement)” value with human IAPP (hIAPP) [2] is on record as “failed to inhibit the aggregation of human IAPP”. In addition, the “inhibition of hIAPP fibril formation, AFM” value in the data set with human IAPP (hIAPP) [3] is reported as “either had no effect on hIAPP fibril formation or appeared to promote fibrils with hIAPP”. In addition, in the data set with RIN-m cells, the “rescue / protection of cells” value was “not capable of protecting RIN-m cells from the toxic effects of hIAPP” and the “toxicity of peptide to cells” value was “improved effect on cell viability”.

Values taken from patent US12522635B2, “Amyloid peptide variants” (Loyola Marymount University, priority 2019, dated 2026).
